Laboratory results: a melting point compilation (Tetko et al.; mined from patent text by program, amines drawn as free bases though some values may be those of a salt)

Row | melting point [°C] | SMILES
1 | 148 | COC(=O)Cc1cc(O)n(C)n1
2 | 181 to 182 | Cc1c(NC(=O)NC(C)(C)CO)c(C)c2c(c1-c1ccccc1)OCC2c1ccc(C(C)C)cc1 (stereo not drawn)
3 | 171 to 172 | OCc1ccc2cc(CO)ccc2c1
4 | 240 to 242 | CCc1c(C(=O)O)oc2ccc(Br)cc12
5 | 143 to 144 | COc1ccc(S(=O)(=O)NC(C)c2ccccc2-c2cc(F)ccc2F)cc1 (stereo not drawn)
6 | 94 to 95 | COc1ccc(C(=O)C2(Br)CCCCC2)c(Cl)c1Cl
7 | 150 to 152 | COc1cc(OC)cc(S(=O)(=O)c2ccc([N+](=O)[O-])cc2)c1
8 | 231 to 232 | O=C(Nc1ccc(F)c(F)c1)c1cc(-c2ccc(F)cc2F)ccc1O
9 | > 320 | CCn1cc(C(=O)O)c(=O)c2c(F)c(F)c(N3CCCC3)c(F)c21
10 | 177 to 185 | CCc1c(N)c(C(N)=O)nn1Cc1cccnn1
11 | 96 | CC1OC(Oc2ccc(C(=O)c3ccc(C#N)cc3)cc2)C(O)C(O)C1O (stereo not drawn)
12 | 240 | O=c1[nH]c2ccc(F)cc2c(=O)o1
13 | 269 to 271 | Cc1ccc(Cl)c(NS(=O)(=O)c2nc3nc(Cl)cc(Cl)n3n2)c1Cl
14 | 92 to 104 | CNC(=O)CN1CCc2cc(Nc3ncc(Cl)c(N[C@@H]4CCCC[C@H]4NS(C)(=O)=O)n3)c(OC)cc2CC1
15 | 74 to 76 | COc1c([N+](=O)[O-])ccc(C=O)c1OS(=O)(=O)c1ccccc1
16 | 103 to 104 | Cc1oc(-c2ccccc2)nc1COc1ccccc1CCl
17 | 191 | COc1cc(OC)cc(C2(O)C(=O)Nc3ccc(Cl)cc32)c1 (stereo not drawn)
18 | 106 to 107 | CCCCc1oc2ccccc2c1C(O)c1cc(I)c(OCCN(CC)CC)c(I)c1 (stereo not drawn)
19 | 193 to 195 | COc1nc2ccccc2nc1NC(=S)N1CCN(c2cc(C)cc(C)c2)CC1
20 | 118 to 120 | Nc1cccc(C(=O)Nc2ccccc2)c1
21 | 230 to 231 | CC(C)(C)c1ccc2oc(-c3ccc(C=Cc4ccc(-n5ncc(-c6ccccc6)n5)cc4)cc3)nc2c1
22 | 65 to 66 | CCOC(=O)c1c(Cl)nc(-c2ccccc2)c([N+](=O)[O-])c1C(=O)OCC
23 | 78 to 81 | CC1(C)C2CC[C@]1(C)C(=O)C(C(=O)Nc1ccc(C(F)(F)F)cc1)C2=O (stereo partly drawn)
24 | 105 to 107 | Cc1nccn1-c1cccc(-n2cnc3cc(-c4ccoc4)ccc32)c1

Row | melting point [°C] | SMILES
25 | 90 to 91 | COC(=O)c1ccc(C(=O)NCC(C)C)c([N+](=O)[O-])c1
26 | 138 to 139 | COc1ccc(-c2cc(Cl)c3cc(O)c(Br)cc3c2)cc1
27 | 165 to 169 | CN1CCN(c2cc(Cl)cc3c2c(=O)n(Cc2cccc(Cl)c2)c(=O)n3Cc2ccccc2)CC1
28 | 80 to 82 | CC(NC(Nc1cccc(C#N)c1)=C(C#N)S(=O)(=O)c1ccc(Cl)cc1)C(C)(C)C (stereo not drawn)
29 | 160 to 161 | CCON=C(CC)C1=C(O)CC(c2ccc(NC(=O)OC)cc2)CC1=O (stereo not drawn)
30 | 162 | CC(OCCc1ccc([N+](=O)[O-])cc1)OC1C(O)C(CO)OC1n1ccc(=O)[nH]c1=O (stereo not drawn)
31 | 78 to 80 | CCOC(=O)Nn1cccc1C(=O)c1ccccc1F
32 | 49 | CCOC(=O)c1c(-c2ccc(F)cc2)c(-c2ccc(F)cc2)cn1C(C)C
33 | 219 to 221 | COc1cc2c(Nc3ccc(Sc4nccn4C)c(Cl)c3)c(C#N)cnc2cc1N1CCC(N2CCOCC2)CC1
34 | 190 to 191 | CC(C)(C)OC(=O)CCc1cc(C#N)nc(-c2nc(=O)c3ccccc3s2)c1
35 | 168 to 170 | CN(C(CCn1c(=O)cc(Cl)[nH]c1=O)C(=O)NO)S(=O)(=O)c1ccc(Oc2cccc(Cl)c2)cc1 (stereo not drawn)
36 | 239 to 241 | Nc1ncc(-c2cccc(Cl)c2Cl)nc1C(=O)Nc1cccnc1
37 | 80.2 to 84.9 | CCOC(=O)C1C(=O)c2ccccc2OC1C(F)(F)F (stereo not drawn)
38 | 94 to 96 | CN(Cc1cc2c3c(c1)c(=O)c(C(=O)NCc1ccc(F)cc1)cn3CC(=O)N2C)C[C@@H](O)c1cc2ccccc2o1
39 | 87 to 88.5 | Cc1c(-c2ccc(Cl)cc2)nn(C)c1C(F)(F)F
40 | 110 | COC(=O)c1ccccc1S(=O)(=O)NCC#N
41 | 78 to 82 | COc1cc2c(c(Cl)c1Cl)CCC2
42 | 180 to 182 | CCOc1c(N)c2c(c(OCC)c1OCC)C(C1c3c(cc4c(c3OC)OCO4)CCN1C)OC2=O (stereo not drawn)
43 | 135 to 137 | N#Cc1cc(C#N)cc(OC(C(=O)C2CC2)C(=O)C2CC2)c1
44 | 198 to 200 | O=c1cc(CBr)c2cc(O)ccc2o1
45 | 143 | CCC(C(=O)OC)c1cccc(C(=O)c2cc3cc(C(=O)OC)sc3s2)c1 (stereo not drawn)
46 | 138 to 139 | Cn1c2c(ccc1=O)C(NCCc1ccc([N+](=O)[O-])cc1)CCC2 (stereo not drawn)
47 | 224 to 226 | N#CC(C(=O)NCC(=O)O)C(=O)c1nn(-c2ccccc2)c2c1CSc1ccccc1-2 (stereo not drawn)
48 | 172 to 175 | CNC(=O)c1ccc(OCC(O)CNC(C)COc2ccc(O)c(C(N)=O)c2)cc1 (stereo not drawn)

Row | melting point [°C] | SMILES
49 | 154 to 155 | O=C1c2ccccc2C(=O)N1CC(=C(Br)Br)c1ccccc1
50 | 174 | CCc1nn(CCOc2ccc(CC3SC(=O)NC3=O)cc2)c(=O)c2ccccc12 (stereo not drawn)
51 | 64 to 72 | COC(=O)C1(c2ccc(OCCNC(=O)C3Cc4ccccc4N3S(=O)(=O)c3ccc(-c4cc(C(F)(F)F)ccc4Cl)cc3)cc2)CC1 (stereo not drawn)
52 | 79 to 81 | CCN(CC)C(=O)c1cc2cc(Br)ccc2o1
53 | 232 | CC(C)c1c(S(=O)(=O)c2ccc(O)cc2)c2ccccn2c1C#N
54 | 73 to 75 | Nc1ccc(OCc2ccc(Cl)cc2)cc1F
55 | 92 to 94 | COC(=O)C(=O)c1ccc(OCCOc2ccc3cccnc3c2)cc1
56 | 103 to 105 | COC(=O)c1c(Oc2ccccc2N)c2ccccc2n1C
57 | 159 to 160 | Cc1nnc(-c2ccc3occ(-c4ccc5sccc5c4)c3c2)o1
58 | 198 | O=C(CCCCCCOc1ccc2c(c1)[nH]c1ccccc12)NO
59 | 64 to 65 | CCOC(=O)Cc1cccc(-c2nc(CCl)c(C)o2)c1
60 | 245 | Cc1cc(Br)cc(C(=O)O)c1N
61 | 168 to 171 | CCC1=Nc2ccc(OCCN3C(=O)c4ccccc4C3=O)cc2C(=O)C1
62 | 166 | CCOc1cc(OCCO)cc2c1C(=O)N(COC(=O)c1c(Cl)cccc1Cl)S2(=O)=O
63 | 126 to 132 | Cc1c(Cc2ccccc2)c(=O)n(Cc2ccc(F)cc2)c2cc(OCc3nnn[nH]3)cc(OCc3nnn[nH]3)c12
64 | 120 to 122 | CCCCCCCCOC(=O)NCC1CCC(CNC(=O)OCCCCCCCC)CC1 (stereo not drawn)
65 | 216 to 218 | Cc1ccc2c(c1)CN(C(=O)NCCc1ccc(S(=O)(=O)NC(=O)NC3CCCCC3)cc1)C2=O
66 | 55 to 60 | CCC(Cc1cc(C(C)(C)C)c(O)c(C(C)(C)C)c1)[N+](=O)[O-] (stereo not drawn)
67 | 60 to 63 | CCOC(=O)C(Cc1ccc(C(=O)C(C)(C)C)cc1)Cc1ccc(C(=O)C(C)(C)C)cc1
68 | 114 to 115 | CCCCOc1c(N(C)C(=O)OC(C)(C)C)n(CC(C)(C)C)c(=O)c2ccc(CC(N)=O)cc12
69 | 133 to 136 | CCCc1nc(N)c(C(=O)OC)[nH]1
70 | 187 to 188 | CN(C)c1ccc(-c2cccc3c2C2(COc4cc5c(cc42)OCCO5)C(=O)N3Cc2ccccn2)cn1 (stereo not drawn)
71 | 96 to 97 | c1ccc(NCP2CN(c3ccccc3)CN(c3ccccc3)C2)cc1
72 | 127 to 128 | CCOc1cccc(F)c1C1OC(=O)NC1=O (stereo not drawn)

Row | melting point [°C] | SMILES
73 | 183 | COC(=O)C1=C(CC(=O)N2CCN(C)CC2)NC(CS(=O)c2ccccc2C)=C(C(=O)OC)C1c1c(Cl)cccc1Cl (stereo not drawn)
74 | 115 | CCOC(=O)C1=C(COCC(C)N=[N+]=[N-])NC(C)=C(C(=O)OC)C1 (stereo not drawn)
75 | 113 to 114 | Cc1ccc(-c2nc3ccccc3o2)cc1
76 | 77 to 79 | O=NSC1(CCO)C2CC3CC(C2)CC1C3 (stereo not drawn)
77 | 96 | CCCNS(=O)(=O)c1cc(C(=O)CBr)ccc1Cl
78 | 186 to 188 | COc1ccc(Br)c(Cl)c1C(=O)O
79 | 192 to 193 | COCOc1ccc(Cl)cc1-c1cc(-c2cccc([N+](=O)[O-])c2)c(C#N)c(N)n1
80 | 216 to 217 | O=C(c1ccc(CNc2nc(-c3ccccc3)nc3ccccc23)cc1)N1CCN(c2ncc(Cc3ccccc3)cn2)CC1
81 | 180 | NC1(C(=O)O)C=CC(Br)=C(F)C1 (stereo not drawn)
82 | > 300 | Cc1cc2[nH]c(=O)c3cnc(O)cc3n2n1
83 | 193 to 194 | CC(C)(C)OC(=O)/C=C/c1cc2ncc(C#N)c(Cl)c2s1
84 | 120 to 123 | COC(=O)c1cc(Cl)c(Cl)cc1C#N
85 | 162 to 165 | O=C(Nc1c(F)cc(F)cc1F)N(Cc1ccc2c(c1)Cc1ccccc1-2)C1CCCCC1
86 | 86 to 88 | c1cc(CN2CCCCC2)ccc1CN1CCCCC1
87 | 83 | C=CC[C@@]1(NC(=O)OC(C)(C)C)C(=O)[C@@H](C(C)C)N(C(=O)OC(C)(C)C)C1=O
88 | 165 to 173 | CCC(=O)C(=Cc1cc(O)c(O)c(C#N)c1)C(=O)CC
89 | 92.5 to 102 | COC(=O)c1ccccc1Nc1ccccc1
90 | 280 | CNc1ncnc2c1c(-c1ccc([N+](=O)[O-])o1)nn2C
91 | 152 to 157 | COC(=O)C(Oc1ccc(NC(C)=O)cc1)c1ccc(Oc2ccc(Cl)cc2)cc1 (stereo not drawn)
92 | 124 to 127 | CC(C)(C)c1ccc(S(=O)(=O)Oc2ccc(C(C)(C)c3ccc(OS(=O)(=O)c4ccc(C(C)(C)C)cc4)cc3)cc2)cc1
93 | 93 to 96 | COc1cccc([C@@H](c2ccc(C3CN(CCC(=O)O)C3)cc2)N2C[C@@H](C)N(Cc3ccccc3)C[C@@H]2C)c1
94 | 116 to 117 | O=C(O)CCc1cn(Cc2ccc(OCc3cccnc3)cc2)nc1OCc1cccnc1

Row | SMILES | melting point [°C]
95 | CC(C)(C)OC(=O)c1ncn2c1[C@@H]1CCN1C(=O)c1c(I)cccc1-2 | 249 to 250
96 | NC(=O)c1ccc([N+](=O)[O-])cc1[N+](=O)[O-] | 202 to 204
97 | C=CCC(O)(C(=O)N[C@H]1CN2CCC1CC2)c1cccs1 (stereo partly drawn) | 54.4 to 58.3
98 | CC(C)Nc1ccc([N+](=O)[O-])cc1C(=O)c1ccccc1 | 155
